Experimental data: patent US20240024298A1, “COMPOSITIONS AND METHODS FOR THE TREATMENT OF HPV-ASSOCIATED DISEASE STATES” (Children's Hospital Medical Center, priority 2022, published 2024)

Columns and labels:
Assay type in all cases: cell-based
[1] = system: HPV+ keratinocytes grown into organotypic epithelial rafts; experiment: EdU proliferation in HPV+ organotypic epithelial rafts
Procedure: (§1) On raft day 14, the tissues were harvested and lysed with RIPA buffer to extract protein for western blotting. […] Beta-actin was used to show equal protein loading. (B) HPV− and HPV+ rafts were treated with increasing doses of OSMI-1, an inhibitor of OGT activity, from day 8 to day 14 of the raft culturing protocol. EdU, a thymidine analog that incorporates into DNA during DNA synthesis, was added to the media on day 13. 24 h later, on raft day 14, tissues were fixed in PFA for paraffin-embedding, sectioning, and immunofluorescence (IF) staining. Representative IF images are shown with nuclei stained with DAPI (blue), and proliferating cells visualized with click chemistry to detect EdU incorporation (pink). Quantification of the number of EdU+ cells per field is shown to the right. […] 2-way ANOVA was used to determine significance. Representative images shown. n=3.
(§2) Representative IF images are shown with nuclei stained with DAPI (blue), proliferating cells visualized with click chemistry to detect EdU incorporation (white), basal cell layer keratinocytes stained with collagen 17A (COL17A; green) and differentiated layer keratinocytes stained with keratin 10 (K10; red). Quantifications of the total (top graph) and suprabasal (lower graph) number of EdU+ cells per field are shown to the right. […] 2-way ANOVA was used to determine significance. Representative images shown. n=3.

[2] = system: HPV− keratinocytes grown into organotypic epithelial rafts; experiment: EdU proliferation in HPV− organotypic epithelial rafts
Procedure: as §1, §2

[3] = system: HPV+ keratinocytes 3D spheroids; experiment: 3D spheroid area, brightfield microscopy; settings: HPV+ spheres, culture day 4, n=4
Procedure: FIG. 3 (A) HPV+ and HPV− keratinocytes were seeded in round-bottom plates to form 3D spheroids (Day 0). 48 h after plating the cells (Day 2), increasing doses of Eliglustat were added to the media. 48 h after adding the drug treatment (Day 4), spheroids were imaged with brightfield microscopy and images quantified for sphere area. n=4. (B) Quantification of sphere area on culture day 4 after treatment with increasing doses of Eliglustat for 48 h.

[4] = 6.25 uM OSMI-1, treated raft day 8 to day 14, EdU added day 13, n=3
[5] = 25 uM OSMI-1 (highest dose tested), raft day 8 to day 14
[6] = increasing doses of Eliglustat, raft day 8 to day 14, EdU added day 13, n=3

Row | SMILES | Proliferation (number of EdU+ cells per field) [1, 4] | Proliferation (number of EdU+ cells per field) [1, 5] | Proliferation (number of EdU+ cells per field) [2, 4] | Proliferation (number of EdU+ cells per field) [2, 5] | Proliferation (total and suprabasal number of EdU+ cells per field) [1, 6] | Proliferation (total and suprabasal number of EdU+ cells per field) [2, 6] | Sphere area ([3]; 25 uM Eliglustat (highest dose tested), 48 h) | Sphere area ([3]; increasing doses of Eliglustat for 48 h)
1 | COc1ccccc1[C@@H](NS(=O)(=O)c1ccc2[nH]c(=O)ccc2c1)C(=O)N(Cc1ccco1)Cc1cccs1 [OSMI-1] | significantly decreased | decreased proliferation | no effect on proliferation | decreased proliferation |  |  |  | 
2 | CCCCCCCC(=O)N[C@H](CN1CCCC1)[C@H](O)c1ccc2c(c1)OCCO2 [Eliglustat] |  |  |  |  | significantly decreased with increasing dose | no significant effect on proliferation | significantly reduce HPV+ sphere area to that of HPV− spheres | decreased concomitantly with increasing Eliglustat dose
